Our source for the ring closure, isolated yield values is US20250248975.

Like-named read-outs stand apart in the source and are kept apart here.

On to `Cn1nc2nc1-c1cc(ccc1F)Oc1c(F)cc3c(ccn3S(=O)(=O)c3ccccc3)c1Cn1cc(cn1)C(C)(C)C/C=C\CC2(C)c1cccc(Br)c1` (centres unmarked), for which the ring closure, isolated yield (rcm bond, 19-membered ring, Grubbs II, toluene, 100.0 °C) stood at 62%.

For the molecule `C#CC(C)(C)CCCCC(C)(c1cccc(CCC(=O)OC)c1)c1csc(-c2cc(Oc3c(F)cc4[nH]ccc4c3CN=[N+]=[N-])ccc2F)n1` (centres unmarked), the ring closure, isolated yield (the molecule shown is the open-chain precursor, triazole bond, 19-membered ring) was 77%.

`COC(=O)/C=C/c1cccc(C2(C)CCCC#Cc3nc(cs3)Cc3c(c(F)cc4c3ccn4S(=O)(=O)c3ccc(C)cc3)Oc3ccc(F)c(c3)-c3ncc2[nH]3)c1` (centres unmarked) came in with a ring closure, isolated yield (from C#CCCCC(C)(c1cccc(/C=C/C(=O)OC)c1)c1cnc(-c2cc(Oc3c(F)cc4c(ccn4S(=O)(=O)c4ccc(C)cc4)c3Cc3csc(I)n3)ccc2F)[nH]1, cc_pd bond, 19-membered ring, PdCl2(PPh3)2/CuI/TEA, DMF, 10.6 mM, 60.0 °C) of 15%.

Turning to `Cc1ccc(S(=O)(=O)n2ccc3c4c(c(F)cc32)Sc2cccc(c2)-c2ccn(n2)C(c2cccc(Br)c2)CCCCC(C)(C)c2cn(nn2)C4)cc1` (centres unmarked), the ring closure, isolated yield (triazole bond, 19-membered ring, 3 steps) is 22.5%.

`Cc1ccc(S(=O)(=O)n2ccc3c4c(c(F)cc32)Sc2ccc(F)c(c2)-c2ccn(n2)C(c2cccc(Br)c2)CCOCC(C)(C)c2cn(nn2)C4)cc1` (centres unmarked): the ring closure, isolated yield (from C#CC(C)(C)COCCC(c1cccc(Br)c1)n1ccc(-c2cc(Sc3c(F)cc4c(ccn4S(=O)(=O)c4ccc(C)cc4)c3CN=[N+]=[N-])ccc2F)n1, triazole bond, 19-membered ring, Cu(MeCN)4BF4 (0.1 eq)/TBTA (0.1 eq), DCM, 43.4 mM, 45.0 °C) was 61%.

On to `CCOC(=O)C(C)Cc1cccc(C2(C)CCC(C)(C)COc3ccn(n3)Cc3c(c(F)cc4c3ccn4S(=O)(=O)c3ccccc3)Oc3ccc(F)c(c3)-c3nc2nn3C)c1` (single isomer, unassigned; isomer 2), for which the ring closure, isolated yield (from CCOC(=O)C(C)Cc1cccc(C(C)(CCC(C)(C)COc2cc[nH]n2)c2nc(-c3cc(Oc4c(F)cc5c(ccn5S(=O)(=O)c5ccccc5)c4CO)ccc3F)n(C)n2)c1, other bond, 18-membered ring, CMBP, toluene, 13.6 mM, 150.0 °C, 1.0 h) was 21%.

For the molecule “Methyl (2R)-3-[3-[21-(benzenesulfonyl)-9,9,24,30-tetrafluoro-3,6-dimethyl-)1-oxa-26-thia-3,4,15,21,32,33-hexazahexacyclo[25.3.1.12,5.112,15.017,25.018,22]tritriaconta-1(31),2(33),4,12(32),13,17,19,22,24,27,29-undecaen-6-yl]phenyl]-2-methylpropanoate”, for the setting “other bond, 19-membered ring, CMBP, toluene, 150.0 °C, 3 steps”, the ring closure, isolated yield is 11.6%.

In turn, `CCOC(=O)CCc1cccc(C2CC/C=C/CC(C)(C)c3cnn(c3)Cc3c(c(F)cc4c3ccn4S(=O)(=O)c3ccc(C)cc3)Oc3ccc(F)c(c3)-c3ccn2n3)c1` (centres unmarked) returned a ring closure, isolated yield (from C=CCCC(c1cccc(CCC(=O)OCC)c1)n1ccc(-c2cc(Oc3c(F)cc4c(ccn4S(=O)(=O)c4ccc(C)cc4)c3Cn3cc(C(C)(C)CC=C)cn3)ccc2F)n1, rcm bond, 20-membered ring, Hoveyda-Grubbs II, toluene, 1.26 mM, 60.0 °C, 12.0 h) of 66%.

`Cn1nc2nc1-c1cc(ccc1F)Sc1c(F)cc3c(ccn3S(=O)(=O)c3ccccc3)c1Cn1cc(cn1)C(C)(C)C/C=C\CC2(C)c1cccc(Br)c1` (centres unmarked): for the setting “rcm bond, 19-membered ring”, the ring closure, isolated yield was 79%.

Where the note is “from CCOC(=O)C(C)Cc1cccc(C(C)(CCC(C)(C)CO)c2nc(-c3cc(Oc4c(F)cc5c(ccn5S(=O)(=O)c5ccccc5)c4Cn4cc(O)nn4)ccc3F)n(C)n2)c1, ether bond, 19-membered ring, CMBP, toluene, 11.3 mM, 150.0 °C, 1.0 h”, `CCOC(=O)C(C)Cc1cccc(C2(C)CCC(C)(C)COc3cn(nn3)Cc3c(c(F)cc4c3ccn4S(=O)(=O)c3ccccc3)Oc3ccc(F)c(c3)-c3nc2nn3C)c1` (centres unmarked) came in with a ring closure, isolated yield of 50%.

Molecule `CC1(c2cccc(I)c2)CCCC(O)CNC(=O)/C=C/c2c(c(F)cc3[nH]ccc23)Oc2ccc(F)c(c2)-c2ncc1[nH]2` (centres unmarked) came in with a ring closure, isolated yield (from CC(CCCC(O)CN)(c1cccc(I)c1)c1cnc(-c2cc(Oc3c(F)cc4[nH]ccc4c3/C=C/C(=O)O)ccc2F)[nH]1, amide bond, 19-membered ring, EDC.HCl/HOBt, THF/DMF 10:1, 102.0 mM, 18.0 h) of 40%.

On to `Cn1cc2nc1-c1cccc(c1)Oc1c(F)cc3[nH]ccc3c1Cn1cc(nn1)C(C)(C)OCCCC2(C)c1cccc(Br)c1` (centres unmarked), for which the ring closure, isolated yield (from C#CC(C)(C)OCCCC(C)(c1cccc(Br)c1)c1cn(C)c(-c2cccc(Oc3c(F)cc4[nH]ccc4c3CN=[N+]=[N-])c2)n1, triazole bond, 19-membered ring, Cu(MeCN)4BF4/TBTA, DCM, 3.2 mM, 45.0 °C) worked out at 60%.

On to “Mixture of 21-(benzenesulfonyl)-6-(3-bromophenyl)-24,30-difluoro-10,10-dimethyl-9,26-dioxa-5,12,13,21,33-pentazahexacyclo[25.3.1.12,5.112,15.017,25.018,22]tritriaconta-1(31),2(33),3,13,15(32),17,19,22,24,27,29-undecaene and 22-(benzenesulfonyl)-7-(3-bromophenyl)-25,31-difluoro-11,11-dimethyl-10,27-dioxa-5,6,13,14,22-pentazahexacyclo[26.3.1.113,16.02,6.018,26.019,23]tritriaconta-1(32),2,4,14,16(33),18,20,23,25,28,30-undecaene”, for which the ring closure, isolated yield (other bond, 19-membered ring, CMBP, 1,4-dioxane, 24.7 mM, 145.0 °C) was determined as 55%.

`Cn1nc2nc1-c1cc(ccn1)Oc1c(F)cc3[nH]ccc3c1Cn1cc(nn1)C(C)(C)CCCC[C@]2(C)c1cccc(I)c1` came in with a ring closure, isolated yield (triazole bond, 19-membered ring, 4 steps) of 22.1%.
